The subject of experiment [1] is diamondback moth (Plutella xylostella) second instar larvae. As to the kind of experiment: Toxicity to diamondback moth larvae by the leaf-dipping method. To be noted: for mortality at 0.25 ppm / mortality at 1 ppm: Plutella xylostella, in Brassica oleracea, foliar, corrected mortality grade, cabbage leaf dip. It counts as in vivo. The method, then:
Determining the toxicity activity of part of compounds on diamondback moth (Plutella xylostella) instar larvae by the leafdipping method.
The test agents of the compounds in Table 2 were weighed out accurately with an electronic analytical balance, and the original drug was dissolved in a 10000 ppm solution with dimethyl sulfoxide as the solvent and then diluted with 0.1% of Triton solution to 1 ppm and 0.25 ppm solutions. Taking the cabbage not contacted with the liquid medicine, and cutting the leaves into 6 cm-diameter circular leaves. Soaking the leaves in the prepared liquid medicine for 15 seconds, taking out and drying, and placing the leaves into 6 cm culture dishes, wherein 1 cabbage leaf is placed in each culture dish. The same standard second instar larvae were placed in petri dishes with 10 heads per dish and 4 replicates per concentration for a total of 40 heads. After inoculation, the culture dish is placed in a constant-temperature culture chamber with the temperature of 25±1° C. and the illumination period of 16 (D) to 8 (L) h, and the number of dead and live larvae is investigated after 48 h and 72 h. A blank and a control of compound K1 and compound K2 were also provided.
The mortality is calculated according to the following formula 1, then the corrected mortality is calculated according to the formula 2, and finally the classification is carried out according to the corrected mortality value and the rating standard shown in the table 2, and the specific results are shown in the tables 3 and 4.
(§1) mortality %=(number of dead insects/total number of insects)×100% Equation 1;
(§2) corrected mortality %=[(treatment-control mortality)/(1-control mortality)]×100% Equation 2.

Experiment [2] deals with rice leaf rollers (Cnaphalocrocis medinalis) fourth instar larvae. As to the kind of experiment: Toxicity to rice leaf roller fourth instar larvae by the leaf-dipping method. It is filed as in vivo. To be noted: for mortality at 5 ppm: Cnaphalocrocis medinalis, foliar, corrected mortality grade, 48 h, rice leaf dip. On the procedure: The toxicity activity of part of the compounds on the fourth instar larvae of the rice leaf rollers (Cnaphalocrocis medinalis) is determined by the leafdipping method.
The test agents of the compounds in Table 2 were weighed out accurately with an electronic analytical balance, and the original drug was dissolved completely in dimethylsulfoxide to 10000 ppm solution and then diluted with 0.1% aqueous solution of Triton to 5 ppm solution. And (4) selecting rice plants which are planted in a laboratory and are not contacted with the liquid medicine, and cutting leaves of the rice plants to about 8 cm. Soaking the leaves in the prepared liquid medicine for 15 seconds, taking out and drying, wrapping the roots with absorbent cotton, and putting the wrapped roots into 9 cm culture dishes, wherein 3-5 rice leaves are placed in each culture dish. The water bamboo sections used as the feed for larvae are peeled off gently, and the four-instar larvae of the same standard are placed in culture dishes with 10 heads per dish and 4 repetitions per concentration for a total of 40 heads. After the inoculation, the culture dish is placed in a constant temperature culture room with the temperature of 26±1° C. and the illumination period of 16 (D): 8 (L) h, and the number of dead and live larvae is investigated after 48 h. A blank and a control of compound K1 and compound K2 were also provided.
The mortality was calculated according to the following formula 1, then the corrected mortality was calculated according to the following formula 2, and finally the rating criteria shown in table 2 were combined for ranking according to the corrected mortality value, and the specific results are shown in table 5.
as §1, §2

Where [3] appears, read: 48 h, 48 h, read-out: mortality (1 ppm) 48 h.
[4] abbreviates: 72 h, 72 h, read-out: mortality (1 ppm) 72 h.

Usually mortality stands for the share of the test organisms that died.

Molecules are shown by their SMILES. Like-named read-outs stand apart in the source and are kept apart here. Bounds are passed on as bounds.

`Cc1cc(C2=NOC(c3cc(Cl)c(F)c(Cl)c3)(C(F)(F)F)C2)ccc1C(=O)Nc1cnn(C(C)C)c1` (stereo not shown) [Compound 127] showed a mortality at 0.25 ppm in experiment [1] (48 h) of 100%. For the same compound, the mortality at 1 ppm in experiment [1] (setting [3]) and in experiment [1] (setting [4]) was 100% throughout. Moreover, the “lethality to Plutella xylostella” value in experiment [1] (concentration of 0.25 ppm) is on record as 100%. Moreover, the mortality at 5 ppm in experiment [2] was determined as 100%. Moreover, in experiment [2] (concentration of 5 ppm), the “lethality to Cnaphalocrocis medinalis” value was 100%.

Turning to `Cc1cc(C2=NOC(c3cc(Cl)c(F)c(Cl)c3)(C(F)(F)F)C2)ccc1C(=O)Nc1c(C)nn(C(=O)C(C)C)c1C` (stereo not shown) [Compound 171], the mortality at 1 ppm in experiment [1] (setting [4]) was 80 to 90%.

On to `Cc1cc(C2=NOC(c3cc(Cl)c(F)c(Cl)c3)(C(F)(F)F)C2)ccc1C(=O)Nc1c(C)nn(C(=O)C2CCC2)c1C` (stereo not shown) [Compound 174], for which the mortality at 1 ppm in experiment [1] (setting [4]) was in the range of 70 to 80%.

As for `Cc1cc(C2=NOC(c3cc(Cl)c(F)c(Cl)c3)(C(F)(F)F)C2)ccc1C(=O)Nc1c(C)nn(C(=O)N(C)C)c1C` (stereo not shown) [Compound 177], the mortality at 1 ppm in experiment [1] (setting [4]) fell in the range of 80 to 90%.

Take `Cc1cc(C2=NOC(c3cc(Cl)cc(Cl)c3)(C(F)(F)F)C2)ccc1C(=O)Nc1ccn(C)n1` (stereo not shown) [Compound K1, reference compound]: the mortality at 0.25 ppm in experiment [1] (48 h) is below 50%. Also, the mortality at 1 ppm in experiment [1] (setting [3]) and in experiment [1] (setting [4]) was below 50% in each case. This compound displayed a mortality at 5 ppm in experiment [2] below 50%.

The values are drawn from patent publication US20260026504A1, “COMPOUND […] STRUCTURE, APPLICATION, AND INSECTICIDE” (Anhui Shengfeng Biochemical Co., Ltd, priority 2022, published 2026).
